Test system: plasma glucose
Test: Effect of co-administration with pioglitazone on plasma glucose in db/db mice
Type: in vivo
Conditions: male db/db mice, 21 days in powder chow (0.03% succinate salt of Compound I and/or 0.0075% pioglitazone hydrochloride), feeding condition, average (n=7) ± standard deviation; control 472.9 ± 74.6
Source text: Male db/db (BKS.Cg-+Lepr^db/+Lepr^db) mice (6 weeks of age, CLEA Japan (Tokyo, Japan)) were divided into 4 groups (n=7 in each group) comprising Group A to Group D. Group A had free access to CE-2 powder chow (CLEA Japan) for 21 days. […] During 21 days of administration of the powder chow, there were not significant differences in the administration amount of the powder chow in the above 4 groups. After 21 days of administration of the powder chow, blood samples were taken from the orbital veins of the mice by capillary pipette under feeding condition, and plasma glucose levels were enzymatically measured by using Autoanalyzer 7080 (Hitachi, Japan). The values in the table means average (n=7)±standard deviation.

`Cn1c(=O)cc(N2CCC[C@@H](N)C2)n(Cc2cc(F)ccc2C#N)c1=O` [Compound I, 2-[6-(3-Amino-piperidin-1-yl)-3-methyl-2,4-dioxo-3,4-dihydro-2H-pyrimidin-1-ylmethyl]-4-fluoro-benzonitrile] was tested, and the “Plasma Glucose” value was 410.3 ± 47.9 mg/dL.

With `CCc1ccc(CCOc2ccc(CC3SC(=O)NC3=O)cc2)nc1` (centres unmarked) [Pioglitazone, 5-{[4-(2-(5-ethyl-2-pyridyl)ethoxy)phenyl]-methyl}-thiazolidine-2,4-dione] the “Plasma Glucose” value was 394.4 ± 47.9 mg/dL.

— patent US20110077402A1, “ADMINISTRATION OF DIPEPTIDYL PEPTIDASE INHIBITORS” (priority 2007, published 2011)
